From patent US20230065745A1, “PIPERIDINE-2,6-DIONE DERIVATIVES WHICH BIND TO CEREBLON, AND METHODS OF USE THEREOF” (Captor Therapeutics S.A., priority 2019, published 2023)
pKi: −log10 of the molar value.

Tests used:
CK1α = CK1α degradation assay, Kelly cell line (Western blot densitometry); format: cell-based; conditions: 24 h
Method: Cells were seeded on 6-well plates, and the compounds to be tested were added at the desired concentration range. […] After 24 h incubation (37° C., 5% CO2), cells were washed and cell lysates were prepared using RIPA lysis buffer. The amount of protein was determined via BCA assay, and the appropriate quantity was then loaded on the precast gel for the protein separation. After primary and secondary Ab staining, the membranes were washed and signals developed. The densitometry analysis was implemented to obtain the numeric values used later in the protein level evaluation process.
(§1) The treatment with all compounds was carried out for 24 h.
(§2) Densitometry values are normalized to the loading control ((3-ACTIN) and presented as % of DMSO control, using the following labels: […]

IKZF1 = IKZF1 degradation assay, H929 cell line (Western blot densitometry); format: cell-based; conditions: for % of IKZF1 protein reduction, based on densitometry values: 24 h
Method: Cells were seeded on 6- or 12-well plates, and the compounds to be tested were added at the desired concentration range. […] After 6 or 24 h incubation (3TC, 5% CO2), cells were harvested, washed and cell lysates were prepared using RIPA lysis buffer. The amount of protein was determined via BCA assay, and the appropriate quantity was then loaded on the precast gel for the protein separation. After primary and secondary Ab staining, the membranes were washed and signals developed. The densitometry analysis was implemented to obtain the numeric values used later in the protein level evaluation process. […] The treatment with all compounds was carried out for 24 h.

IKZF3 = IKZF3 degradation assay, H929 cell line (Western blot densitometry); format: cell-based; conditions: 24 h
Method: Cells were seeded on 6- or 12-well plates, and the compounds to be tested were added at the desired concentration range. […] After 24 h incubation (3TC, 5% CO2), cells were harvested, washed and cell lysates were prepared using RIPA lysis buffer. The amount of protein was determined via BCA assay, and the appropriate quantity was then loaded on the precast gel for the protein separation. After primary and secondary Ab staining, the membranes were washed and signals developed. The densitometry analysis was implemented to obtain the numeric values used later in the protein level evaluation process.
as §1, §2

[1] = target: CRBN-DDB1 protein complex (Homo sapiens, UniProt Q96SW2); assay: Fluorescence Polarization (FP) assay, displacement of Cy5-labelled thalidomide; conditions: 25 nM CRBN-DDB1, 5 nM Cy5-labelled thalidomide, read-out: CRBN binding Ki
CRBN-DDB1 protein complex, sequence (Q96SW2 whole entry): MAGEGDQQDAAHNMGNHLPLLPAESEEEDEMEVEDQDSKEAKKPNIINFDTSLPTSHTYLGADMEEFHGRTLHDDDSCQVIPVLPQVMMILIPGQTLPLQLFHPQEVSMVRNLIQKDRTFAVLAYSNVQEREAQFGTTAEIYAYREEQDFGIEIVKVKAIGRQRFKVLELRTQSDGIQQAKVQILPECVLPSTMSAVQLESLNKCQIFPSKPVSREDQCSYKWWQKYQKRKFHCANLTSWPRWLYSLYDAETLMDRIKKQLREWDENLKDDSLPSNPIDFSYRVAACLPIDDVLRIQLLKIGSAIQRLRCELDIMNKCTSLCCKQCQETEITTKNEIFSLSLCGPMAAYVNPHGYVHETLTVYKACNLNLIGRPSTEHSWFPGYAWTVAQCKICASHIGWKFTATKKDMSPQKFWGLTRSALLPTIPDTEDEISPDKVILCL
CRBN-DDB1 protein complex, sequence (Q16531 whole entry partner): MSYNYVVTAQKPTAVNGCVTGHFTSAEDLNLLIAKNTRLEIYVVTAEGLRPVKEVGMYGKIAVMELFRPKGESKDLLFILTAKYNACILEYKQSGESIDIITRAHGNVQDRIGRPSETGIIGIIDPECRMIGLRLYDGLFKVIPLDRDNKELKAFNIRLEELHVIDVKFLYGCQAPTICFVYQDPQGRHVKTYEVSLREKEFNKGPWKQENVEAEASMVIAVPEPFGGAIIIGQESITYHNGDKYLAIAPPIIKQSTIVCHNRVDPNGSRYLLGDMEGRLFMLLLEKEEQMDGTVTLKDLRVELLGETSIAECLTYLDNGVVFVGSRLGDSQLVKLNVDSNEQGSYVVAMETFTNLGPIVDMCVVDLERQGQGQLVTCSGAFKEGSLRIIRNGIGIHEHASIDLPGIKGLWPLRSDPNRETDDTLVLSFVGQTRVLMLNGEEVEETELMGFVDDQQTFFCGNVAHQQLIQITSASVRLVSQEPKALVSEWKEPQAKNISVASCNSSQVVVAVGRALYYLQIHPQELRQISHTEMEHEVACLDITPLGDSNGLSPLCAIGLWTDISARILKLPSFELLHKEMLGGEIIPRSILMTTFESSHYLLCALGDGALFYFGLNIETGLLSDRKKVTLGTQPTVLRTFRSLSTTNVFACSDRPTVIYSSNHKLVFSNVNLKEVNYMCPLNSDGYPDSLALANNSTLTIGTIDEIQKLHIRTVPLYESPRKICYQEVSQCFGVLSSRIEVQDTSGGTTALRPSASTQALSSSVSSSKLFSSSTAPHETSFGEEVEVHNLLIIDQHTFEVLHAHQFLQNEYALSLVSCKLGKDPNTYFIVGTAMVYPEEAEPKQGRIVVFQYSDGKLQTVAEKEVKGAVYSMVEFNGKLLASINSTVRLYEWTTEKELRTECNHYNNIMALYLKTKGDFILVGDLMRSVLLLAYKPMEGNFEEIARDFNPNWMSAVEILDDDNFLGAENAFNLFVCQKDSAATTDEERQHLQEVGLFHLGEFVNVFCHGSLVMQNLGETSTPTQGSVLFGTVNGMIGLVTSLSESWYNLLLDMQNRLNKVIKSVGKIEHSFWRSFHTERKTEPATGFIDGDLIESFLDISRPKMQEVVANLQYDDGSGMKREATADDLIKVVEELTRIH
Method: CRBN-DDB1 protein complex was mixed with Cy5-labelled thalidomide and a compound to be tested (the “test compound”). […] The test solution was added to a 384-well assay plate.
The plate was spun-down (1 min, 1000 rpm, 22° C.) and then shaken using a VibroTurbulator for 10 min at room temperature (20-25° C.), with the frequency set to level 3. The assay plate with protein and the tracer was incubated for 60 min at room temperature (20-25° C.) prior to read-out with a plate reader.
The FP experiment was carried out with various concentrations of the test compounds in order to measure Ki values.

| pKi [1] | Compound | % of CK1α protein reduction, based on densitometry values (CK1α; 1 μM) | % of CK1α protein reduction, based on densitometry values (CK1α; 10 μM) | % of CK1α protein reduction, based on densitometry values (CK1α; 20 μM) | CK1α degradation (in words) (CK1α) | % of IKZF1 protein reduction, based on densitometry values (IKZF1; 1 μM) | % of IKZF1 protein reduction, based on densitometry values (IKZF1; 10 μM) | % of IKZF3 protein reduction, based on densitometry values (IKZF3; 1 μM) | % of IKZF3 protein reduction, based on densitometry values (IKZF3; 10 μM) | % of IKZF1 protein reduction, IKZF 1 (24 H, 20 μM) (IKZF1) |
| --- | --- | --- | --- | --- | --- | --- | --- | --- | --- | --- |
| – | Cc1nc2cccc(N)c2c(=O)n1C1CCC(=O)NC1=O (stereo not drawn) [CC-122, reference compound] | ≤25% (≤25% for 0-25% of CK1α protein reduction) | ≤25% (≤25% for 0-25% of CK1α protein reduction) | ≤25% (≤25% for 0-25% of CK1α protein reduction) | lack of degradation | ≥75% (≥75% for 75-100% of IKZF1 protein reduction) | ≥75% (≥75% for 75-100% of IKZF1 protein reduction) | ≥75% (≥75% for 75-100% of IKZF3 protein reduction) | ≥75% (≥75% for 75-100% of IKZF3 protein reduction) | – |
| – | Nc1cccc2c1C(=O)N(C1CCC(=O)NC1=O)C2=O (stereo not drawn) [Pomalidomide, pomalidomide, reference compound] | >25% (>25% for 26-74% of CK1α protein reduction) | >25% (>25% for 26-74% of CK1α protein reduction) | >25% (>25% for 26-74% of CK1α protein reduction) | to a lesser degree | ≥75% (≥75% for 75-100% of IKZF1 protein reduction) | ≥75% (≥75% for 75-100% of IKZF1 protein reduction) | ≥75% (≥75% for 75-100% of IKZF3 protein reduction) | ≥75% (≥75% for 75-100% of IKZF3 protein reduction) | ≥75% (≥75% for 75-100% of IKZF1 protein reduction) |
| > 5.30 | COc1ccsc1C(=O)NC1CCC(=O)NC1=O (stereo not drawn) [Compound 108, N-(2,6-dioxopiperidin-3-yl)-3-methoxythiophene-2-carboxamide] | – | – | >25% (>25% for 26-74% of CK1α protein reduction) | – | ≤25% (≤25% for 0-25% of IKZF1 protein reduction) | ≤25% (≤25% for 0-25% of IKZF1 protein reduction) | ≤25% (≤25% for 0-25% of IKZF3 protein reduction) | ≤25% (≤25% for 0-25% of IKZF3 protein reduction) | ≤25% (≤25% for 0-25% of IKZF1 protein reduction) |
| > 5.30 | O=C1CCC(NC(=O)c2sc(Cl)c3cccnc23)C(=O)N1 (stereo not drawn) [Compound 106, 5-chloro-N-(2,6-dioxopiperidin-3-yl)thieno[3,4-b]pyridine-7-carboxamide] | – | – | – | – | ≤25% (≤25% for 0-25% of IKZF1 protein reduction) | ≤25% (≤25% for 0-25% of IKZF1 protein reduction) | ≤25% (≤25% for 0-25% of IKZF3 protein reduction) | ≤25% (≤25% for 0-25% of IKZF3 protein reduction) | ≤25% (≤25% for 0-25% of IKZF1 protein reduction) |
| 4.30 to 5.00 | COCc1ncc(C(=O)NC2CCC(=O)NC2=O)s1 (stereo not drawn) [Compound 111, N-(2,6-dioxopiperidin-3-yl)-2-(methoxymethyl)thiazole-5-carboxamide] | – | – | – | – | ≤25% (≤25% for 0-25% of IKZF1 protein reduction) | ≤25% (≤25% for 0-25% of IKZF1 protein reduction) | ≤25% (≤25% for 0-25% of IKZF3 protein reduction) | ≤25% (≤25% for 0-25% of IKZF3 protein reduction) | ≤25% (≤25% for 0-25% of IKZF1 protein reduction) |
